Experiments:
[1] = test system: β-lactamase-producing E. coli (TG1 phage antibody E. coli); assay: Growth of β-lactamase-producing E. coli on agar plates containing antibiotics; type: cell-based; design: E. coli growth score on agar plate: key to the marks not given beside the values; conditions: for Antibiotic effect on β-lactamase-producing E. coli (in words): at the indicated concentrations of Table 2; for Concentration toxic to β-lactamase-expressing E. coli / Concentration toxic to β-lactamase-expressing E. coli (toxic level): agar plates; for Concentration toxic to β-lactamase-expressing E. coli (toxic level): called IC50 in b119 and b167
Protocol: First, the ability of these candidate cephalosporins to kill the relevant β-lactamase-producing E. coli (TG1 phage antibody E. coli) was tested. […] This is presumably due to β-lactamase-catalyzed inactivation. […] Presumably, neither is inactivated by E. coli β-lactamase. […] More preferably, E. coli should be challenged with approximately 40-45 μM cefoxitin and 0.45-0.50 μM cefotaxime.
Next, the ability of the cephalosporins to kill the relevant β-lactamase-producing E. coli (TG1 phage antibody E. coli) was tested by growing the bacteria on agar plates containing the antibiotics. […] This is presumably due to β-lactamase-catalyzed inactivation. […] Presumably, neither is inactivated by E. coli β-lactamase.
A second experiment was performed in which E. coli was grown on agar plates containing varying amounts of cefotaxime.

TNFα = TNFα (Homo sapiens, UniProt P01375); assay: ECL-based assay of TNFα binding to its receptor after incubation with label (sugars, ampicillin)
Sequence of TNFα (P01375 77-233 limits assumed): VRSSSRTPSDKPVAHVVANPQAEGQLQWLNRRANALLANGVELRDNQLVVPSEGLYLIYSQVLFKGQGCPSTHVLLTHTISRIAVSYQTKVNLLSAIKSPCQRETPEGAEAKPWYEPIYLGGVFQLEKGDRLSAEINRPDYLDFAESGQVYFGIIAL
Protocol: Experiments were conducted to determine whether catalytic antibodies can chemically modify and thereby inactivate disease-associated proteins. First, the reaction of reducing sugars with the disease-associated protein, tumor necrosis factor alpha (TNFα) was examined. In this reaction, the reducing sugar aldehyde covalently reacts with protein lysine sidechains. Chemical modification was detected using an ECL-based binding assay that measures the binding of TNFα to its receptor (an assay of biological function). […] Thus, chemical modification is a viable approach to inactivate proteins. Experiments were conducted to determine whether catalytic antibodies can inactivate disease-associated proteins. First, the reaction of reducing sugars with the disease-associated protein, tumor necrosis factor alpha (TNFα) was examined. In this reaction, the reducing sugar aldehyde covalently reacts with protein lysine sidechains. Chemical modification was detected using an ECL-based immunoassay that measures the binding of TNFα to its receptor. The assay is a sandwich format that uses antibodies directed against TNF and its receptor. One antibody is labeled with biotin, the other with an ECL label (TAG NHS Ester, IGEN International). When the TNF-TNF receptor complex is present, a sandwich complex comprising both a biotin and an ECL label is formed. This sandwich complex is captured on streptavidin-coated magnetic beads and measured using ECL detection. Alternatively, the TNF receptor may be directly biotinylated and the TNF target molecule labeled directly with the ECL label (or visa versa); in this alternative approach, no antibodies are necessary. […] Thus, chemical modification may be used to inactivate proteins. The uncatalyzed reaction between a β-lactam (ampicillin) and two proteins was also examined. Bovine serum albumin (BSA) and ampicillin were reacted overnight. […] Ampicillin was also reacted with TNFα overnight. […] Thus, this reaction is much more facile than the reaction of TNFα with reducing sugars.

[2] = Pseudo-first order NaOH hydrolysis rates by UV spectrometry; type: physicochemical; conditions: 1.0 mM antibiotic, 10.0 mM NaOH, 30.0° C.
Protocol: Further, before choosing either cefoxitin or cefotaxime as the labeling reactant, it was verified that their uncatalyzed reactivity rates were as facile as that of ampicillin. Model reactions were performed comparing the (NaOH) hydrolysis rates of cefoxitin, cefotaxime, and ampicillin. Hydrolysis and acylation are mechanistically identical. Their pseudo-first order hydrolysis rates as measured by UV spectrometry (1.0 mM antibiotic, 10.0 mM NaOH, 30.0° C.) were virtually the same: […]

[3] = first column, head printed 10 g/mL
[4] = second column, head printed 10 g/mL

## CC1(C)S[C@@H]2[C@H](NC(=O)[C@H](N)c3ccccc3)C(=O)N2[C@H]1C(=O)O [Ampicillin]
[1]
  Antibiotic effect on β-lactamase-producing E. coli (in words): little or no antibiotic effect
[1]; [3]
  E. coli growth score on agar plate: +++++
[1]; [4]
  E. coli growth score on agar plate: +++++
TNFα; reacted with TNFα overnight, uncatalyzed
  Loss of TNFα biological activity according to the receptor binding assay: 16%
[2]
  Pseudo-first order hydrolysis rate: 0.00564 min⁻¹

## N[C@@H](C(=O)N[C@@H]1C(=O)N2C(C(=O)O)=C(Cl)CS[C@H]12)c1ccccc1 [Cefaclor]
[1]
  Antibiotic effect on β-lactamase-producing E. coli (in words): little or no antibiotic effect
[1]; [3]
  E. coli growth score on agar plate: +++++

## CO/N=C(\C(=O)N[C@@H]1C(=O)N2C(C(=O)O)=C(COC(C)=O)CS[C@H]12)c1csc(N)n1 [Cefotaxime]
[1]
  Concentration toxic to β-lactamase-expressing E. coli: ~0.25 µM
  Concentration toxic to β-lactamase-expressing E. coli (toxic level): ~0.12 µg/mL
  Antibiotic effect on β-lactamase-producing E. coli (in words): excellent antibiotic effects
[1]; cefotaxime concentration 0.04 μg/mL
  # of E. coli colonies: 225
[1]; cefotaxime concentration 0.12 μg/mL
  # of E. coli colonies: 5
[1]; cefotaxime concentration 0.37 μg/mL
  # of E. coli colonies: 0
[1]; cefotaxime concentration 1.11 μg/mL
  # of E. coli colonies: 0
[2]
  Pseudo-first order hydrolysis rate: 0.0041 min⁻¹

## CO[C@@]1(NC(=O)Cc2cccs2)C(=O)N2C(C(=O)O)=C(COC(N)=O)CS[C@@H]21 [Cefoxitin]
[1]
  Concentration toxic to β-lactamase-expressing E. coli: ~22 µM
  Concentration toxic to β-lactamase-expressing E. coli (toxic level): approximately 10 μg/mL
  Antibiotic effect on β-lactamase-producing E. coli (in words): excellent antibiotic effects
[1]; [3]
  Number of E. coli colonies on agar plate: 30 colonies
[2]
  Pseudo-first order hydrolysis rate: 0.00438 min⁻¹

## CC(=O)OCC1=C(C(=O)O)N2C(=O)[C@@H](NC(=O)Cc3cccs3)[C@H]2SC1 [Cephalothin]
[1]
  Antibiotic effect on β-lactamase-producing E. coli (in words): little or no antibiotic effect
[1]; [3]
  E. coli growth score on agar plate: +++++
[1]; [4]
  E. coli growth score on agar plate: +++++

## O=C(CO)[C@@H](O)[C@H](O)[C@H](O)CO [Fructose]
TNFα; incubation time: 7 days
  TNFα receptor binding following incubation with sugar (control buffer = 1.00, arbitrary): 0.79
TNFα; incubation time: 14 days
  TNFα receptor binding following incubation with sugar (control buffer = 1.00, arbitrary): 0.67
TNFα; incubation time: None
  TNFα receptor binding following incubation with sugar (control buffer = 1.00, arbitrary): 1.02

## O=C[C@H](O)[C@@H](O)[C@@H](O)[C@H](O)CO [Galactose]
TNFα; incubation time: 7 days
  TNFα receptor binding following incubation with sugar (control buffer = 1.00, arbitrary): 0.89
TNFα; incubation time: 14 days
  TNFα receptor binding following incubation with sugar (control buffer = 1.00, arbitrary): 0.82
TNFα; incubation time: None
  TNFα receptor binding following incubation with sugar (control buffer = 1.00, arbitrary): 1.00

## OC[C@H]1O[C@@](CO)(O[C@H]2O[C@H](CO)[C@@H](O)[C@H](O)[C@H]2O)[C@@H](O)[C@@H]1O [sucrose]
TNFα; 2-week incubation period
  Inactivation of TNFα receptor binding (in words): did not inactivate TNFα

Reference: patent US20020182207A1, “Methods and compositions for modifying biologically active target molecules” (priority 2000, published 2002)
